This passage reports X-ray diffraction peaks and solubility results from patent EP0413299A1, “Antibiotic composition” (MERCIAN CORPORATION, priority 1989, dated 1991).

Where two headings read alike, the source gives them in different places.

The nature of one data set: X-ray diffraction. Type of data set: physicochemical. The following applies: before storage. The method, then:
The X-ray diffractions of the above-obtained samples were measured by using a JDX-8030 X-ray diffraction apparatus (JEOL LTD.) through a Ni-filter with a CuKα x-ray (40KV, 20mA) at a scanning speed of 1.2° /min. (Fig. 1).

Data set [1] is classed as physicochemical. Particulars: pH 4. The method, then:
Solubility of the samples was determined by using a […] dissolution apparatus (Toyama Sangyo Co., LTD.) and 200 ml of buffer (adjusted at pH 4.0, prepared by mixing JP dissolution test solution 1 and JP dissolution test solution II) at 37 ± 0.5°C with stirring at 100 rpm paddle rotation. 250 mg (potency equivalent) of sample was added to the test solution, and the solubility of the sample was determined by high performance liquid chromatography under time course investigation. […] However, the solubility decreased immediately after about 5 minutes because of crystallization of the antibiotic. […] After storage for one month at 60°C , the solubility of the granules of Reference 3 was no more than 240μg/ml after five minutes, and became the same as that of the crystalline powders after 60 minutes.

For data set [2] the following is noted: acidic aqueous solution.

As usually defined, the solubility is the concentration that dissolves in the medium under given conditions.

As for 4˝-O-(Para-methoxyphenylacetyl)tylosin, the X-ray diffraction peaks result in “X-ray diffraction” is given as “High X-ray diffraction peaks were observed”. Besides, the solubility result in data set [1] was “no more than about a few micrograms per ml”; in data set [2] (pH 2), 1200 µg/mL; in data set [2] (pH 4), 10 µg/mL; in data set [2] (pH 5) it was 2 µg/mL; in data set [2] (pH 6.8) it was 0.5 µg/mL.
